Assay results published in PubChem BioAssay (NCI).
Where “and” joins values, the source holds several entries; their conditions need not be identical. Equal values may be shown once.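 All cell lines were grown in 96-well plates and treated with compound for 48 hours. TGI is the concentration that stops growth completely.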 Numbered stars: 1 amine (or outer) side, 2 acyl side, 3 side chain; on linkers, the order of the positions; unused ones are H or OH. Bridge positions count the residues as written; N and C are the ends. Square brackets hold non-standard residues; d marks the D form. Peptide text beside a SMILES is read from it. I, II: the chains in the order shown. Actinocin(1to9) = Cc1c2oc3c(C)ccc(C(=O)[*:2])c3nc-2c(C(=O)[*:1])c(N)c1=O; NMeV = CN[CH](C(=O)O)C(C)C; Sar = CNCC(=O)O

Legend:
Assay in all cases: NCI anticancer screen, dose series, 48 h
[1] = tested on: A498 renal
[2] = tested on: UACC-257 melanoma
[3] = tested on: HOP-92 NSCLC
[4] = tested on: BT-549 breast
[5] = tested on: CAKI-1 renal
[6] = tested on: SNB-75 CNS
[7] = tested on: NCI-H460 lung
[8] = tested on: LOX IMVI melanoma
[9] = tested on: MDA-MB-231 breast
[10] = tested on: SR leukemia
[11] = tested on: SNB-19 CNS
[12] = tested on: U251 CNS
[13] = tested on: RXF 393 renal
[14] = tested on: HCT-116 colon
[15] = tested on: HS 578T breast
[16] = tested on: KM12 colon
[17] = tested on: SK-MEL-5 melanoma
[18] = tested on: UO-31 renal

SMILES | TGI [1] [µM] | TGI [2] [µM] | TGI [3] [µM] | TGI [4] [µM] | TGI [5] [µM] | TGI [6] [µM] | TGI [7] [µM] | TGI [8] [µM] | TGI [9] | TGI [10] [µM] | TGI [11] [µM] | TGI [12] [µM] | TGI [13] [µM] | TGI [14] [µM] | TGI [15] [µM] | TGI [16] [µM] | TGI [17] [µM] | TGI [18] [µM]
Cc1cccc2c(=O)c3c(O)cc4c(c3n(C)c12)C=CC(C)(C)O4 | > 100 | > 100 | > 100 | > 100 | > 100 | > 100 | > 100 | > 100 | > 100 µM | 54.6 | > 100 | > 100 | 38 | > 100 | > 100 | > 100 | > 100 | 
C[Si](C)(C)C#CCOC=C1CC1 |  | > 100 |  | > 100 | > 100 | > 100 | > 100 | > 100 | > 100 µM | > 100 | > 100 | > 100 | > 100 | > 100 | > 100 | > 100 | > 100 | > 100
O=C1Cc2c([nH]c3cc(Br)ccc23)-c2ccccc2N1 | 49 |  | 88.3 | 46.9 |  | 44.9 | 48.5 | 37 | > 100 µM | > 100 | 58 | 31.8 | 12.2 | 15.9 | 69.9 | > 100 | 38.9 | 38.1
CC(C)C(=O)CP(=O)(O)O | > 100 | > 100 | > 100 | > 100 | > 100 | > 100 | > 100 | > 100 | > 100 µM | > 100 | > 100 | > 100 | > 100 | > 100 | > 100 | > 100 | > 100 | 
CCN(CC)c1ccc2cc(-c3csc(-c4ccc(N(C)C)cc4)n3)c(=O)oc2c1 |  | > 100 | > 100 | > 100 | > 100 | > 100 | > 100 | > 100 | > 100 µM | > 100 | > 100 | > 100 | > 100 | > 100 | > 100 | > 100 | > 100 | > 100
COC(=O)c1c(OC(C)=O)ccc2c1c1cc3ccccc3c(OC(C)=O)c1n2C | 46 |  | 37 | 81.1 | 70.3 | 36 | > 100 |  | > 100 µM | > 100 | > 100 | > 100 | > 100 | 74 | 36.7 | > 100 | 31.2 | > 100
O=C(CSCC(=O)N/N=C/c1ccncc1)N/N=C/c1ccncc1 | > 100 | > 100 | > 100 | > 100 | > 100 | > 100 | > 100 | > 100 | > 100 µM |  | > 100 | > 100 | > 100 | > 100 | > 100 | > 100 | > 100 | > 100
N=c1oc2ccc(Cl)cc2cc1C(=O)NC1CCCCC1 | > 100 | > 100 | > 100 | > 100 | > 100 | > 100 | > 100 | > 100 | > 100 µM | > 100 | > 100 | > 100 | > 100 | > 100 | > 100 | > 100 | > 100 | 
CC(C)[Si](OC1=CCC[C@H]2NC(=O)[C@@H](Cc3ccc([N+](=O)[O-])cc3)[C@@]12C)(C(C)C)C(C)C |  | 17.8 |  | 13.2 | 26.2 | 23.8 | 10.5 | 15.8 | 28.1 µM | 8.02 | 25.9 |  | 4.72 | 12.7 | 25.1 | 13.1 | 5.58 | 26.4
COc1cc(C2SC(N)=Nc3c2c(C)nn3C(=O)c2ccc(Cl)cc2)ccc1O (stereo unspecified) |  | > 10 | > 10 | > 10 | > 10 | > 10 | > 10 | > 10 | > 10 µM | > 10 | > 10 | > 10 | > 10 | > 10 | > 10 | > 10 | > 10 | 
O=C(O)CCCN=C(C(=NCCCC(=O)O)c1ccccc1)c1ccccc1 | > 100 | > 100 |  | > 100 |  | > 100 | > 100 | > 100 | > 100 µM | > 100 | > 100 | > 100 | > 100 | > 100 | > 100 | > 100 |  | > 100
O=c1cc(-c2cccc(Br)c2)[nH]c2cc3c(cc12)OCO3 | 13.8 | > 100 |  | 14.4 |  | 10.5 | 24.8 | 17.4 | 23.1 µM | > 100 | 10.3 | 11.4 | 14.3 | 13.3 | 26 | 25.4 | 9.73 | 37.9
O=c1[nH]c(=S)c2[nH]c(=O)n(-c3ccccc3)c2[nH]1 | > 100 | > 100 | > 100 | > 100 | > 100 |  | > 100 | > 100 | > 100 µM | > 100 | > 100 | > 100 | > 100 | > 100 | > 100 | > 100 | > 100 | > 100
Cc1ccc(NCc2nnc3c(-c4ccccc4)nc4ccccc4n23)cc1 | > 100 | > 100 | 50 | > 100 | > 100 |  | > 100 | 71.1 | > 100 µM | > 100 | > 100 | > 100 | > 100 | > 100 | > 100 | > 100 | 30.4 | 
Cc1ccc(C)c(C(=N)c2ccccc2Cc2ccccc2)c1 | 53.9 | 73.1 | 46.4 | 83.7 | > 100 |  | 33.2 | 31.7 | 64.2 µM | 41.7 | > 100 | 30.4 | 34.9 | 41.5 | 20.7 | 56.5 | 30.5 | > 100
OCC1(CNc2cc(Cl)ncn2)CCC1 | > 100 | > 100 | > 100 | > 100 |  | > 100 | > 100 | > 100 | > 100 µM | > 100 |  | > 100 |  | > 100 | > 100 | > 100 | > 100 | > 100
COC(=O)/C=C/N1CC1 |  | > 10 |  | > 10 | > 10 | > 10 | > 10 |  | > 10 µM | > 10 | > 10 | > 10 |  | > 10 | > 10 | > 10 | > 10 | 
COC(=O)C(=O)C(C(=O)C(=O)Nc1nc(=S)[nH][nH]1)c1nc2ccc([N+](=O)[O-])cc2[nH]c1=O (stereo unspecified) | > 100 | > 100 | > 100 | > 100 | > 100 | > 100 | > 100 | > 100 | > 100 µM |  | > 100 | > 100 | > 100 | > 100 | > 100 | > 100 | > 100 | > 100
CCC(C)C1NC(=O)C(NC(=O)c2c3nc4c(C(=O)NC5C(=O)NC(C(C)C)C(=O)N6CCCC6C(=O)N(C)CC(=O)N(C)C(C(C)C)C(=O)OC5C)ccc(C)c4oc-3c(C)c(=O)c2N)C(C)OC(=O)C(C(C)C)N(C)C(=O)CN(C)C(=O)C2CCCN2C1=O (stereo unspecified) (I: TIP[Sar][NMeV] / II: TVP[Sar][NMeV]; ester I:1-I:C, II:1-II:C; linker I:N-II:N via Actinocin(1to9); configuration not given here) | 0.00433 | 0.0266 | 0.0476 | 0.0627 |  | 0.579 |  |  | 0.0753 µM and 0.261 µM | 0.404 | 1.23 | 10.1 | 0.0102 | 4.8 | 0.363 | 0.191 | 0.111 | 
COc1ccc(/C=C2\CC3C4CC=C5C[C@@H](O)CC[C@]5(C)C4CC[C@]3(C)C2=O)cc1OC (stereo partly specified) | 93.6 | > 100 | > 100 | > 100 | > 100 | > 100 | > 100 | > 100 | > 100 µM |  | > 100 | > 100 | > 100 | > 100 | > 100 | > 100 | 21.9 | 90.3
Cc1cccc(/C=C2\CCCCCC2=O)c1 | > 100 | > 100 | > 100 | > 100 | > 100 | > 100 | > 100 | > 100 | > 100 µM | > 100 | > 100 | > 100 |  | > 100 | > 100 | > 100 | > 100 | > 100
O=c1c2cc([N+](=O)[O-])cnc2sn1-c1ccc(Br)cc1 |  | > 100 | 54.7 | > 100 |  | > 100 | > 100 | 52.5 | 73.4 µM | 60.7 | > 100 | > 100 |  | 59.3 | > 100 | > 100 | > 100 | > 100
Fc1ccc(C(OCCN2CCC3CCC(C2)N3C/C=C/c2cccnc2)c2ccc(F)cc2)cc1 (stereo unspecified) | 28 | 12.3 | 27 | 26.4 | 26.1 | 27.9 | 30.6 | 27 | 26.6 µM |  | 29.6 | 24.4 | 19.4 | 19 | 31.7 | 26.3 | 14.9 | 6.09
C1COCCOP2(N3CC3)=NP(N3CC3)(=NP(N3CC3)(N3CC3)=N2)OCCOCCO1 (stereo unspecified) | > 100 | > 100 |  | > 100 | > 100 | > 100 |  | > 100 | > 100 µM | > 100 | > 100 | > 100 | > 100 | > 100 | > 100 | > 100 | > 100 | > 100
CCOC(=O)c1c[nH]c2cc3c(cc2c1=O)CCS3 | > 100 | > 100 | > 100 | > 100 | > 100 | > 100 | > 100 | > 100 | > 100 µM |  | > 100 | > 100 | > 100 | > 100 | > 100 | > 100 | > 100 | > 100
O=c1ccc2nc3ccc(O)cc3oc-2c1 | > 100 | 26.4 | > 100 | 44 | > 100 | 22 | > 100 | 7.86 | > 100 µM |  | > 100 | > 100 | > 100 | > 100 | > 60 | > 62.7 | 2.95 | > 100
CCOC(=O)c1c(CN2CCOCC2)n(Cc2ccccc2)c2c1cc(O)c1nc(C)c(C)nc12 | 55.3 | > 100 |  | 34 | 64.9 | 32.7 | > 100 | > 100 | > 100 µM | > 100 | > 100 | 74.3 |  | > 100 | > 100 | > 100 | 57.4 | > 100
